Data on 22 compounds can be found in patent US20030236229A1 (priority 1996, published 2003).

Where a name gives a salt, the structure may show the parent alone.

The target in one test is T1, Golgi α-mannosidase II (Canavalia ensiformis, UniProt C0HJB3).
T1 sequence (C0HJB3 1-981): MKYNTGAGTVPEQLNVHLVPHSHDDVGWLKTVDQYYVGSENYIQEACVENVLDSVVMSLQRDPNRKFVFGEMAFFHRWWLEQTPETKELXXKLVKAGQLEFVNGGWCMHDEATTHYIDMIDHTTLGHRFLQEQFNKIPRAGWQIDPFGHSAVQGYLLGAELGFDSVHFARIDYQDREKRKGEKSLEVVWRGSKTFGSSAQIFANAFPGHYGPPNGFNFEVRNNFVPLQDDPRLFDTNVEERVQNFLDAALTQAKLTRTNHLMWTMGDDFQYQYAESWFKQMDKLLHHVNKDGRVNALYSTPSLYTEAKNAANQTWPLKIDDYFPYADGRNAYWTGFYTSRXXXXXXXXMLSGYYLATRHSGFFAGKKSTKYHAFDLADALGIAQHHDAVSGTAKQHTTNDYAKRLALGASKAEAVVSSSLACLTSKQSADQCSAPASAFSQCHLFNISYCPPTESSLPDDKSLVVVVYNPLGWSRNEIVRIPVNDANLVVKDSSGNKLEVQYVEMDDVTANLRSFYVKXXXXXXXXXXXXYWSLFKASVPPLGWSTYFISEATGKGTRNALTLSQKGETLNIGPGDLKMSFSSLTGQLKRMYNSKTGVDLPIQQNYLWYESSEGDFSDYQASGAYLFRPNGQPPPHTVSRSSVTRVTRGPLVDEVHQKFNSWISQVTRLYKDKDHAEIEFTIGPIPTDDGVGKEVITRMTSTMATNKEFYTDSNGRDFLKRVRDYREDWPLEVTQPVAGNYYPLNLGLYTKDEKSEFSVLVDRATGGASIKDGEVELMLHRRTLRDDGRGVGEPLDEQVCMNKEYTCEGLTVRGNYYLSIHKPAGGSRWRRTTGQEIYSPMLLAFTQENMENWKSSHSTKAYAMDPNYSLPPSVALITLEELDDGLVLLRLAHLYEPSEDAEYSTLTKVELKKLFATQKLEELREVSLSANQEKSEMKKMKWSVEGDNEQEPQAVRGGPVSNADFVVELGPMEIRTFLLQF
Assay: not given
In kind it is biochemical. The note with it: sodium acetate pH 5.6, 60 min at 37° C., p-nitrophenol read at 405. As for the experimental part: (§1) 15 μl of α-mannosidase (Sigma 38 U/ml) was added to each well and the plates were incubated for 60 min at 37° C. The reaction was stopped by the addition of 50 μl of 0.5M sodium carbonate and formation of p-nitrophenol was measured with a plate set at […]. […] The reaction was stopped by the addition of 50 μl of 0.5M sodium carbonate and formation of p nitrophenol was measured with a plate set at 405.
As for `OC1=C(O)N2CCC[C@@H](O)[C@H]2[C@@H]1O` [(1S,8R,8aS)-1,5,6,7,8,8a-Hexahydro-1,2,3,8-indolizinetetraol], the “MannoaidaseII Activity (μM)” value is “No detectable”.

The test is the same for the next values; noted with them: sodium acetate pH 5.6, 60 min at 37° C., p-nitrophenol read at 405; read-out: MannoaidaseII Activity.
Regarding `OCC1C(O)C(O)C2C(O)CCCN12` (stereo not shown) [EJH-4-263, 3-hydroxymethyl-swainsonine], the IC50 amounted to 1.83 ± 1.3 µM.

Regarding `O=C1[C@H](O)[C@@H](O)[C@@H]2[C@H](O)CCCN12` [GD 35, (1S,2R,8R,8aS)-1,2,8-Trihydroxyhexahydo-3(2II)-indolizinone], the IC50 is 1030 µM.

The target of the next test is T2, lysosomal mannosidase (Homo sapiens, UniProt O00754).
T2 sequence (O00754 50-1011): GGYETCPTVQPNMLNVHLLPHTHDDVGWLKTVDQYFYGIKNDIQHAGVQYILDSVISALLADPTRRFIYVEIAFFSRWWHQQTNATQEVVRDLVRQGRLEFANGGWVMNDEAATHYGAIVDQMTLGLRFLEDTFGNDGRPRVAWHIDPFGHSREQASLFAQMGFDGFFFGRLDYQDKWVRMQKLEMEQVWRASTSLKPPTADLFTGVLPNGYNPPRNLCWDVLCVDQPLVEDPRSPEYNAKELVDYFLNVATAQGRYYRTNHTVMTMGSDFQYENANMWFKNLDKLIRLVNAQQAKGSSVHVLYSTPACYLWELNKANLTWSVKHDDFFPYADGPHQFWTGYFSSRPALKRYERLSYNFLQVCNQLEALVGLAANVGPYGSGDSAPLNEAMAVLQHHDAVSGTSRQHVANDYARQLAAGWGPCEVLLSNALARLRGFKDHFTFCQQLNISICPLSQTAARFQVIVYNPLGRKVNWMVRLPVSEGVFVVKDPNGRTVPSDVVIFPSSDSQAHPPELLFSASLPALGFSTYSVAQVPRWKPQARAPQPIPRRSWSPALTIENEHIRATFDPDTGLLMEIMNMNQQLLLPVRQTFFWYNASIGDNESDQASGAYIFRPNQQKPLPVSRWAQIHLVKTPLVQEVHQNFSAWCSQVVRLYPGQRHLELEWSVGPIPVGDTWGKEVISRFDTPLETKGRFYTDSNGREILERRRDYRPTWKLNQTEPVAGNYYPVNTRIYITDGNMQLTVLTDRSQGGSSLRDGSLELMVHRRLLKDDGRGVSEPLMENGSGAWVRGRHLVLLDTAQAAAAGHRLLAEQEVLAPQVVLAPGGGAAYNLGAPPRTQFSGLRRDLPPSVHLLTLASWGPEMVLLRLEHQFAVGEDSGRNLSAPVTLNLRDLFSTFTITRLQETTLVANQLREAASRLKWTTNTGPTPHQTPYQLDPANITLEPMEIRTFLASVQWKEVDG
In words: biochemical. As to conditions: Lysosomal Mannosidase Activity (μM). As for the experimental part:
as §1
`O[C@H]1[C@H]2[C@H](O)CCCN2C[C@H]1O` [Swainsonine, reference compound] returned an IC50 of 0.08 ± 0.079 µM.

Still in this test, the particulars now being: sodium acetate pH 5.0, 60 min at 37° C., p-nitrophenol read at 405.
Turning to `OC1=C(O)N2CCC[C@@H](O)[C@H]2[C@@H]1O` [(1S,8R,8aS)-1,5,6,7,8,8a-Hexahydro-1,2,3,8-indolizinetetraol], the “Lysosomal Mannosidase Activity (μM)” value was “No detectable inhibition”.

Staying with this test, now noted: sodium acetate pH 5.0, 60 min at 37° C., p-nitrophenol read at 405; read-out: Lysosomal Mannosidase Activity.
For the compound `CC1CCC(O)C2C(O)C(O)CN12` (single isomer, unassigned) [GD37], the IC50 was 28.2 ± 7.85 µM. As to `OC1CN2C(COCc3ccccc3)CCC(O)C2C1O` (single isomer, unassigned) [GD42], the IC50 came out at 0.164 ± 0.0491 µM. As to `CC1CCC(O)C2C(O)C(O)CN12` (single isomer, unassigned) [GD 20], the IC50 was 2.3 ± 1.13 µM.

For `CC1CCC(O)C2C(O)C(O)CN12` (single isomer, unassigned) [GD 28], the IC50 was found to be 0.316 ± 0.0759 µM. Same read-out and setting: for `OC1CN2C(COCc3ccccc3)CCC(O)C2C1O` (single isomer, unassigned) [GD 91] the value was 3.23 ± 0.268 µM; for `N#CC1C(O)[C@@H](O)C2[C@H](O)CCCN12` (stereo in doubt) [GD 92, (1S, 2S, 3R/S, 8R, 8aS)-3-cyano-1,2,8-Trihydroxyoctahydroindolizine], 30.1 ± 1.2 µM. Same read-out and setting: the value for `OCC1C(O)C(O)C2C(O)CCCN12` (stereo not shown) [EJH-4-263, 3-hydroxymethyl-swainsonine] was 39.1 ± 16.3 µM; that for `OCC1C(O)C(O)C2C(O)CCCN12` (stereo not shown) [EJH-4-264, 3-hydroxymethyl-swainsonine] was 1.7 ± 0.5 µM. Consider `CC1CCC(O)C2C(O)C(O)CN12` [GD19, (5R)-5-Methylswainsonine formate salt], for which the IC50 was 1.45 ± 0.071 µM. Turning to `C[C@H]1[C@@H](CO)C[C@@H](O)[C@@H]2[C@H](O)[C@H](O)CN21` [GD40, (5S,6S)-6-Hydroxymethyl-5-methylswainsonine], the IC50 came out at 62.4 ± 17.9 µM. Regarding `C[C@@H]1[C@H](CO)C[C@@H](O)[C@@H]2[C@H](O)[C@H](O)CN21` [GD44, (5R,6R)-6-Hydroxymethyl-5-methylswainsonine], the IC50 was found to be 24.5 ± 7.62 µM. Consider `OC[C@H]1CC[C@@H](O)[C@@H]2[C@H](O)[C@H](O)CN12` [GD45, (5R)-5-(Hydroxymethyl)swainsonine], for which the IC50 was 0.705 ± 0.309 µM. Same read-out and setting: the value for `CCOC(=O)C1CC(O)C2C(O)C(O)CN2C1C` [GD84, ethyl (5R,6R)-5-methylswainsonine-6-carboxylate] was 1500 ± 707 µM; that for `O=C1[C@H](O)[C@@H](O)[C@@H]2[C@H](O)CCCN12` [GD 35, (1S,2R,8R,8aS)-1,2,8-Trihydroxyhexahydo-3(2II)-indolizinone] was 1090 µM; that for `CCOC(=O)[C@H]1C[C@H](O)[C@@H]2[C@@H](O)[C@H](O)CN2[C@H]1C` [GD 36, ethyl (1R,2R,5S,6S,8S,8aR)-1,2,8-trihydroxy-5-methyloctahydro-6-indolizinecarboxylate] was 120 ± 32.2 µM. Same read-out and setting: for `CC[C@H]1CC[C@@H](O)[C@@H]2[C@H](O)[C@H](O)CN12` [GD 38, (5S)-5-Ethylswainsonine] the value was 0.36 ± 0.313 µM; for `OC[C@@H]1CC[C@@H](O)[C@@H]2[C@H](O)[C@H](O)CN12` [GD 46, (5S)-5-(Hydroxymethyl)swainsonine], 1.48 ± 0.455 µM.

In the next test the test system is MDAY-D2 tumor cells.
Assay: not given
As to conditions: viable MDAY-D2 tumor cells; cited from earlier work.
Regarding `CCCC(=O)OC1CN2CCCC(O)C2C1O` (stereo not shown) [2-butanoyloxy], the “activity as inhibitors of Golgi oligosaccharide processing” value (from here on “activity as inhibitors”) was “retained full activity”. As for `CCCCCCCC(=O)OC1CN2CCCC(O)C2C1O` (stereo not shown) [2-octanoyloxy], the “activity as inhibitors” value is “retained full activity”.

As for `O=C(OC1CN2CCCC(O)C2C1O)c1ccc([N+](=O)[O-])cc1` (stereo not shown) [2-p-nitrobenzoyloxy], the “activity as inhibitors” value was “retained full activity”.
